These results are taken from paper PMC4509514, “Saccharomyces cerevisiae Ski7 Is a GTP-Binding Protein Adopting the Characteristic Conformation of Active Translational GTPases” (Structure(London, England:1993), 2015).

The target in the assay is T1, Ski7C (Saccharomyces cerevisiae, UniProt Q08491).
T1 construct: gene SKI7; C-terminal GTPase-like region, residues 254-747; N-terminal thioredoxin tag cut with PreScission; expressed in E. coli BL21; one molecule per asymmetric unit (SeMet form for phasing)
T1 sequence (Q08491 254-747): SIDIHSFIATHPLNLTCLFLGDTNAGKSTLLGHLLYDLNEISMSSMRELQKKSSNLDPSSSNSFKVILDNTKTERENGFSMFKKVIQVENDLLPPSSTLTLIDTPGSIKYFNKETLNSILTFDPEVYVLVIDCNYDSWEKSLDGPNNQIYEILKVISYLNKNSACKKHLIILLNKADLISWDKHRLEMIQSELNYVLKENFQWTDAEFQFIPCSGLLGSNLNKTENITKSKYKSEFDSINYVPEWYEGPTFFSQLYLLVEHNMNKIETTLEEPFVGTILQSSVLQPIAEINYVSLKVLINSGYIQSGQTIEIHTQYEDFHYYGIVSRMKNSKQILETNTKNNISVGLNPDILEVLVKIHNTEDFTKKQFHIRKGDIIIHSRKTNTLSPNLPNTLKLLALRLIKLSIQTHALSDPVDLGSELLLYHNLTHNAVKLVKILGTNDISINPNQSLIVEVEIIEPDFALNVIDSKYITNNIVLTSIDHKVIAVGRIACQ
The assay can be described thus: thermal shift (Thermofluor). The assay is classed as binding. To be noted: nucleotide analog added during alkaline phosphatase treatment; nucleotide-free protein as reference.

For the molecule `Nc1nc2c(ncn2[C@@H]2O[C@H](COP(=O)(O)OP(=O)(O)NP(=O)(O)O)[C@@H](O)[C@H]2O)c(=O)[nH]1` [GMPPNP], the Tm amounted to 47.6 °C.
Under `Nc1nc2c(ncn2[C@@H]2O[C@H](COP(=O)(O)CP(=O)(O)O)[C@@H](O)[C@H]2O)c(=O)[nH]1` [GMPCP] stands 44.0 °C.
